Measured values as given in patent US6689783B2, “Aryl oxime-piperazines useful as CCR5 antagonists” (priority 2001, dated 2004).
Structures can show the parent of a compound that is named as a salt.

Key:
[1] = tested on: U87 cells stably expressing CD4 and the chemokine receptor CCR5; experiment: HIV-1 entry assay (luciferase reporter virions); type: cell-based; conditions: Human immunodeficiency virus 1, U87/CD4/CCR5, read-out: Viral Entry IC50
Protocol: Several types of assays can be used to determine the CCR5 inhibitory and antagonistic activity of the compounds of the invention. Some are, for example, the CCR5 Membrane Binding Assay, the HIV-1 Entry Assay, HIV-1 Replication Assay, the Calcium Flux Assay, the GTPγS Binding Assay (secondary membrane binding assay) and the Chemotaxis Assay. Compounds of this invention were evaluated for their ability to inhibit CCR5 receptor mediated viral entry using an HIV-1 entry assay, which is described below:
Replication defective HIV-1 reporter virions are generated by cotransfection of a plasmid encoding the NL4-3 strain of HIV-1 (which has been modified by mutation of the envelope gene and introduction of a luciferase reporter plasmid) along with a plasmid encoding one of several HIV-1 envelope genes as described by Connor et al, Virology, 206 (1995), 935-944. Following transfection of the two plasmids by calcium phosphate precipitation, the viral supernatants are harvested on day 3 and a functional viral titer determined. These stocks are then used to infect U87 cells stably expressing CD4 and the chemokine receptor CCR5 which have been preincubated with or without test compound. Infections are carried out for 2 hours at 37° C., the cells washed and media replaced with fresh media containing compound. The cells are incubated for 3 days, lysed and luciferase activity determined. […]

Structure (SMILES)	melting point [°C]	IC50 [1] [nM]
CCON=C(c1ccc(OC(F)(F)F)cc1)N1CCN(C2(C)CCN(C(=O)c3c(C)ncnc3C)CC2)C[C@@H]1C (as salt: HCl)	165 to 169	–
CCON=C(c1ccc(C(F)(F)F)cc1)N1CCN(C2(C)CCN(C(=O)c3c(C)ncnc3C)CC2)C[C@@H]1C [Ih, 1-[(4,6-dimethyl-5-pyrimidinyl)carbonyl]-4-[4-[(ethoxyimino)[4-(trifluoromethyl)phenyl]methyl]-3(s)-methyl-1-piperazinyl]-4-methylpiperidine]	–	16.5
